From ChEMBL document CHEMBL3244164, “Synthesis and analgesic activity of 1,3-dihydro-3-(substituted phenyl)imidazo[4,5-b]pyridin-2-ones and 3-(substituted phenyl)-1,2,3-triazolo[4,5-b]pyridines” (J Med Chem, 1978)
The source made the active and inactive calls.

Columns and labels:
[1] = test system: Rattus norvegicus; assay: Analgesic activity in Sprague-Dawley rat brewer's yeast treated foot assessed as response threshold at 8 mg/kg, po; assay type: functional
[2] = test system: Rattus norvegicus; assay: Analgesic activity in Sprague-Dawley rat normal foot assessed as response threshold at 8 to 16 mg/kg, po; assay type: functional; details: dose mg/kg 8-16
[3] = test system: Rattus norvegicus; assay: Analgesic activity in Sprague-Dawley rat assessed as increase in mean reaction time at 5 mg/kg, po after 1 hr relative to control; assay type: functional
[4] = test system: Rattus norvegicus; assay: Analgesic activity in Sprague-Dawley rat assessed as increase in mean reaction time at 5 mg/kg, po after 2 hrs relative to control; assay type: functional
[5] = test system: Rattus norvegicus; assay: Analgesic activity in Sprague-Dawley rat assessed as increase in mean reaction time at 5 mg/kg, po after 3 hrs relative to control; assay type: functional
[6] = test system: Rattus norvegicus; assay: Analgesic activity in Sprague-Dawley rat assessed as increase in mean reaction time at 5 mg/kg, po after 4 hrs relative to control; assay type: functional
[7] = test system: Rattus norvegicus; assay: Analgesic activity in Sprague-Dawley rat assessed as increase in mean reaction time at 5 mg/kg, po after 5 hrs relative to control; assay type: functional
[8] = test system: Rattus norvegicus; assay: Analgesic activity in Sprague-Dawley rat assessed as increase in mean reaction time at 10 mg/kg, po after 1 hr relative to control; assay type: functional
[9] = test system: Rattus norvegicus; assay: Analgesic activity in Sprague-Dawley rat assessed as increase in mean reaction time at 10 mg/kg, po after 2 hrs relative to control; assay type: functional
[10] = test system: Rattus norvegicus; assay: Analgesic activity in Sprague-Dawley rat assessed as increase in mean reaction time at 10 mg/kg, po after 3 hrs relative to control; assay type: functional
[11] = test system: Rattus norvegicus; assay: Analgesic activity in Sprague-Dawley rat assessed as increase in mean reaction time at 10 mg/kg, po after 4 hrs relative to control; assay type: functional
[12] = test system: Rattus norvegicus; assay: Analgesic activity in Sprague-Dawley rat assessed as increase in mean reaction time at 10 mg/kg, po after 5 hrs relative to control; assay type: functional
[13] = test system: Rattus norvegicus; assay: Analgesic activity in Sprague-Dawley rat assessed as increase in mean reaction time at 20 mg/kg, po after 1 hr relative to control; assay type: functional
[14] = test system: Rattus norvegicus; assay: Analgesic activity in Sprague-Dawley rat assessed as increase in mean reaction time at 20 mg/kg, po after 2 hrs relative to control; assay type: functional
[15] = test system: Rattus norvegicus; assay: Analgesic activity in Sprague-Dawley rat assessed as increase in mean reaction time at 20 mg/kg, po after 3 hrs relative to control; assay type: functional
[16] = test system: Rattus norvegicus; assay: Analgesic activity in Sprague-Dawley rat assessed as increase in mean reaction time at 20 mg/kg, po after 4 hrs relative to control; assay type: functional
[17] = test system: Rattus norvegicus; assay: Analgesic activity in Sprague-Dawley rat assessed as increase in mean reaction time at 20 mg/kg, po after 5 hrs relative to control; assay type: functional
[18] = test system: Rattus norvegicus; assay: Analgesic activity in Sprague-Dawley rat hyperesthesia model inflamed foot assessed as mean pain reaction threshold at 5 mg/kg, po after 1 hr; assay type: functional
[19] = test system: Rattus norvegicus; assay: Analgesic activity in Sprague-Dawley rat hyperesthesia model inflamed foot assessed as mean pain reaction threshold at 10 mg/kg, po after 1 hr; assay type: functional
[20] = test system: Rattus norvegicus; assay: Analgesic activity in Sprague-Dawley rat hyperesthesia model inflamed foot assessed as mean pain reaction threshold at 20 mg/kg, po after 1 hr; assay type: functional
[21] = test system: Rattus norvegicus; assay: Analgesic activity in Sprague-Dawley rat hyperesthesia model normal foot assessed as mean pain reaction threshold at 5 mg/kg, po after 1 hr; assay type: functional
[22] = test system: Rattus norvegicus; assay: Analgesic activity in Sprague-Dawley rat hyperesthesia model normal foot assessed as mean pain reaction threshold at 10 mg/kg, po after 1 hr; assay type: functional
[23] = test system: Rattus norvegicus; assay: Analgesic activity in Sprague-Dawley rat hyperesthesia model normal foot assessed as mean pain reaction threshold at 20 mg/kg, po after 1 hr; assay type: functional
[24] = test system: Rattus norvegicus; assay: Analgesic activity in naloxone treated Sprague-Dawley rat hyperesthesia model inflamed foot assessed as mean pain reaction threshold at 5 mg/kg, po after 1 hr; assay type: functional
[25] = test system: Rattus norvegicus; assay: Analgesic activity in naloxone treated Sprague-Dawley rat hyperesthesia model inflamed foot assessed as mean pain reaction threshold at 10 mg/kg, po after 1 hr; assay type: functional
[26] = test system: Rattus norvegicus; assay: Analgesic activity in naloxone treated Sprague-Dawley rat hyperesthesia model inflamed foot assessed as mean pain reaction threshold at 20 mg/kg, po after 1 hr; assay type: functional
[27] = test system: Rattus norvegicus; assay: Analgesic activity in naloxone treated Sprague-Dawley rat hyperesthesia model normal foot assessed as mean pain reaction threshold at 5 mg/kg, po after 1 hr; assay type: functional
[28] = test system: Rattus norvegicus; assay: Analgesic activity in naloxone treated Sprague-Dawley rat hyperesthesia model normal foot assessed as mean pain reaction threshold at 10 mg/kg, po after 1 hr; assay type: functional
[29] = test system: Rattus norvegicus; assay: Analgesic activity in naloxone treated Sprague-Dawley rat hyperesthesia model normal foot assessed as mean pain reaction threshold at 20 mg/kg, po after 1 hr; assay type: functional
[30] = test system: Rattus norvegicus; assay: Antiinflammatory activity in Sprague-Dawley rat assessed as inhibition of carrageenan-induced paw edema at 30 mg/kg, po; assay type: functional
[31] = test system: Rattus norvegicus; assay: Antiarthritic activity in Lewis rat assessed as inhibition of adjuvant-induced paw swelling at 50 mg/kg, po qd for 13 days measured on day 14; assay type: functional
[32] = test system: Mus musculus; assay: Analgesic activity in naloxone treated mouse assessed as withdrawal latency at 12.5 to 75 mg/kg, po; assay type: functional, organism-based
[33] = test system: Mus musculus; assay: Analgesic activity in mouse assessed as withdrawal latency at 12.5 to 75 mg/kg, po by Haffner tail clamp method; assay type: functional, organism-based
[34] = test system: Rattus norvegicus; assay: Analgesic activity in Sprague-Dawley rat brewer's yeast treated foot assessed as response threshold at 8 to 16 mg/kg, po; assay type: functional; details: dose mg/kg 8-16
[35] = test system: Rattus norvegicus; assay: Analgesic activity in Sprague-Dawley rat brewer's yeast treated foot assessed as response threshold at 16 to 32 mg/kg, po; assay type: functional; details: dose mg/kg 16-32
[36] = test system: Rattus norvegicus; assay: Analgesic activity in Sprague-Dawley rat normal foot assessed as response threshold at 32 mg/kg, po; assay type: functional
[37] = test system: Rattus norvegicus; assay: Analgesic activity in Sprague-Dawley rat assessed as increase in mean reaction time at 30 mg/kg, po after 1 hr relative to control; assay type: functional
[38] = test system: Rattus norvegicus; assay: Analgesic activity in Sprague-Dawley rat assessed as increase in mean reaction time at 30 mg/kg, po after 2 hrs relative to control; assay type: functional
[39] = test system: Rattus norvegicus; assay: Analgesic activity in Sprague-Dawley rat assessed as increase in mean reaction time at 30 mg/kg, po after 3 hrs relative to control; assay type: functional
[40] = test system: Rattus norvegicus; assay: Analgesic activity in Sprague-Dawley rat assessed as increase in mean reaction time at 30 mg/kg, po after 4 hrs relative to control; assay type: functional
[41] = test system: Rattus norvegicus; assay: Analgesic activity in Sprague-Dawley rat assessed as increase in mean reaction time at 30 mg/kg, po after 5 hrs relative to control; assay type: functional
[42] = test system: Rattus norvegicus; assay: Analgesic activity in Sprague-Dawley rat assessed as increase in mean reaction time at 60 mg/kg, po after 1 hr relative to control; assay type: functional
[43] = test system: Rattus norvegicus; assay: Analgesic activity in Sprague-Dawley rat assessed as increase in mean reaction time at 60 mg/kg, po after 2 hrs relative to control; assay type: functional
[44] = test system: Rattus norvegicus; assay: Analgesic activity in Sprague-Dawley rat assessed as increase in mean reaction time at 60 mg/kg, po after 3 hrs relative to control; assay type: functional
[45] = test system: Rattus norvegicus; assay: Analgesic activity in Sprague-Dawley rat assessed as increase in mean reaction time at 60 mg/kg, po after 4 hrs relative to control; assay type: functional
[46] = test system: Rattus norvegicus; assay: Analgesic activity in Sprague-Dawley rat assessed as increase in mean reaction time at 60 mg/kg, po after 5 hrs relative to control; assay type: functional
[47] = test system: Rattus norvegicus; assay: Analgesic activity in Sprague-Dawley rat assessed as increase in mean reaction time at 120 mg/kg, po after 1 hr relative to control; assay type: functional
[48] = test system: Rattus norvegicus; assay: Analgesic activity in Sprague-Dawley rat assessed as increase in mean reaction time at 120 mg/kg, po after 2 hrs relative to control; assay type: functional
[49] = test system: Rattus norvegicus; assay: Analgesic activity in Sprague-Dawley rat assessed as increase in mean reaction time at 120 mg/kg, po after 3 hrs relative to control; assay type: functional
[50] = test system: Rattus norvegicus; assay: Analgesic activity in Sprague-Dawley rat assessed as increase in mean reaction time at 120 mg/kg, po after 4 hrs relative to control; assay type: functional
[51] = test system: Rattus norvegicus; assay: Analgesic activity in Sprague-Dawley rat assessed as increase in mean reaction time at 120 mg/kg, po after 5 hrs relative to control; assay type: functional
[52] = test system: Rattus norvegicus; assay: Analgesic activity in Sprague-Dawley rat assessed as increase in mean reaction time at 90 mg/kg, po after 1 hr relative to control; assay type: functional
[53] = test system: Rattus norvegicus; assay: Analgesic activity in Sprague-Dawley rat assessed as increase in mean reaction time at 90 mg/kg, po after 2 hrs relative to control; assay type: functional
[54] = test system: Rattus norvegicus; assay: Analgesic activity in Sprague-Dawley rat assessed as increase in mean reaction time at 90 mg/kg, po after 3 hrs relative to control; assay type: functional
[55] = test system: Rattus norvegicus; assay: Analgesic activity in Sprague-Dawley rat assessed as increase in mean reaction time at 90 mg/kg, po after 4 hrs relative to control; assay type: functional
[56] = test system: Rattus norvegicus; assay: Analgesic activity in Sprague-Dawley rat assessed as increase in mean reaction time at 90 mg/kg, po after 5 hrs relative to control; assay type: functional
[57] = test system: Rattus norvegicus; assay: Toxicity in Sprague-Dawley rat assessed as sedation at 90 mg/kg, po after 1 hr relative to control; assay type: organism-based; set-up: dose 90 mg/kg, route oral; details: in vivo
[58] = test system: Rattus norvegicus; assay: Toxicity in Sprague-Dawley rat assessed as sedation at 90 mg/kg, po after 2 hrs relative to control; assay type: organism-based; set-up: dose 90 mg/kg, route oral; details: in vivo
[59] = test system: Rattus norvegicus; assay: Toxicity in Sprague-Dawley rat assessed as sedation at 90 mg/kg, po after 3 hrs relative to control; assay type: organism-based; set-up: dose 90 mg/kg, route oral; details: in vivo
[60] = test system: Rattus norvegicus; assay: Toxicity in Sprague-Dawley rat assessed as sedation at 90 mg/kg, po after 4 hrs relative to control; assay type: organism-based; set-up: dose 90 mg/kg, route oral; details: in vivo
[61] = test system: Rattus norvegicus; assay: Toxicity in Sprague-Dawley rat assessed as sedation at 90 mg/kg, po after 5 hrs relative to control; assay type: organism-based; set-up: dose 90 mg/kg, route oral; details: in vivo

Compound: C=CCn1c(=O)n(-c2ccc3c(c2)OCO3)c2ncccc21 [listing 1 of 2 here]
- Activity [1]: >34 mm
- Activity [2]: >50 mm
- Time [3]: 0.1 s
- Time [4]: 3.8 s
- Time [5]: 5.3 s
- Time [6]: 3.9 s
- Time [7]: 0 s
- Time [8]: 8.8 s
- Time [9]: 7.3 s
- Time [10]: 11.6 s
- Time [11]: 7.1 s
- Time [12]: 6.2 s
- Time [13]: 13.5 s
- Time [14]: 21.7 s
- Time [15]: 24.4 s
- Time [16]: 28.1 s
- Time [17]: 24.5 s
- Activity [18]: 28.8 mmHg
- Activity [19]: 44.4 mmHg
- Activity [20]: 74.4 mmHg
- Activity [21]: 40.5 mmHg
- Activity [22]: 52.3 mmHg
- Activity [23]: 88.5 mmHg
- Activity [24]: 33.4 mmHg
- Activity [25]: 47.8 mmHg
- Activity [26]: 66.6 mmHg
- Activity [27]: 38.4 mmHg
- Activity [28]: 71.1 mmHg
- Activity [29]: 79.3 mmHg
- inhibition in vivo at 30 mg/kg [30]: 42%
- inhibition in vivo at 50 mg/kg [31]: 78.2%

Compound: C=CCn1c(=O)n(-c2ccc3c(c2)OCO3)c2ncccc21 [listing 2 of 2 here]
- Activity [32]: inactive
- Activity [33]: Active

Compound: CCCn1c(=O)n(-c2ccc3c(c2)OCO3)c2ncccc21
- Activity [34]: >25 mm
- Activity [2]: >50 mm

Compound: CCCCC1C(=O)N(c2ccccc2)N(c2ccccc2)C1=O [PHENYLBUTAZONE]
- inhibition in vivo at 30 mg/kg [30]: 39%
- inhibition in vivo at 50 mg/kg [31]: 78%

Compound: CCC(=O)O[C@](Cc1ccccc1)(c1ccccc1)[C@H](C)CN(C)C [PROPOXYPHENE]
- Activity [35]: >25 mm
- Activity [36]: 40 mm
- Time [37]: -3.2 s
- Time [38]: -2.6 s
- Time [39]: -4.4 s
- Time [40]: -0.8 s
- Time [41]: 0.1 s
- Time [42]: -3 s
- Time [43]: -0.8 s
- Time [44]: -2.4 s
- Time [45]: -0.8 s
- Time [46]: -1.1 s
- Time [47]: 41.9 s
- Time [48]: 30 s
- Time [49]: 24.5 s
- Time [50]: 15 s
- Time [51]: 3.6 s
- Time [52]: 40.6 s
- Time [53]: 42 s
- Time [54]: 40.7 s
- Time [55]: 36.4 s
- Time [56]: 10.5 s
- Activity [57]: Toxic
- Activity [58]: Toxic
- Activity [59]: Toxic
- Activity [60]: Toxic
- Activity [61]: Toxic
- Activity [32]: inactive
- Activity [33]: Active
- inhibition in vivo at 30 mg/kg [30]: 23%
- inhibition in vivo at 50 mg/kg [31]: 56.2%
